How the values were obtained:
RelTt^NTD = molecular target: T1, RelTt^NTD (Thermus thermophilus, UniProt Q5SHL3); assay: isothermal titration calorimetry; assay type: binding
T1 sequence (Q5SHL3 1-355): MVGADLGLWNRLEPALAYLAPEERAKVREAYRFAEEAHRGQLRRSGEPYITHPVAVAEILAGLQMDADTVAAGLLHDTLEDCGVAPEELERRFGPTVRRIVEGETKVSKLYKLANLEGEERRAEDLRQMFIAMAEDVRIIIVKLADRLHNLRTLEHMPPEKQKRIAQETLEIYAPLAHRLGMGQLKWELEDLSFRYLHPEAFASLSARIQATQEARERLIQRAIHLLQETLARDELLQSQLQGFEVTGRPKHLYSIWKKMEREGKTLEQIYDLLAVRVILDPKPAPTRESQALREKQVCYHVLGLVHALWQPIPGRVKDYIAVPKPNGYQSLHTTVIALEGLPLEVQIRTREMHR

RelTt = molecular target: T2, RelTt (Thermus thermophilus, UniProt Q5SHL3); assay: ppGpp synthetase activity; assay type: biochemical; conditions: enzyme alone (also with 70S IC and deacylated tRNAVal)
T2 sequence (Q5SHL3 1-727): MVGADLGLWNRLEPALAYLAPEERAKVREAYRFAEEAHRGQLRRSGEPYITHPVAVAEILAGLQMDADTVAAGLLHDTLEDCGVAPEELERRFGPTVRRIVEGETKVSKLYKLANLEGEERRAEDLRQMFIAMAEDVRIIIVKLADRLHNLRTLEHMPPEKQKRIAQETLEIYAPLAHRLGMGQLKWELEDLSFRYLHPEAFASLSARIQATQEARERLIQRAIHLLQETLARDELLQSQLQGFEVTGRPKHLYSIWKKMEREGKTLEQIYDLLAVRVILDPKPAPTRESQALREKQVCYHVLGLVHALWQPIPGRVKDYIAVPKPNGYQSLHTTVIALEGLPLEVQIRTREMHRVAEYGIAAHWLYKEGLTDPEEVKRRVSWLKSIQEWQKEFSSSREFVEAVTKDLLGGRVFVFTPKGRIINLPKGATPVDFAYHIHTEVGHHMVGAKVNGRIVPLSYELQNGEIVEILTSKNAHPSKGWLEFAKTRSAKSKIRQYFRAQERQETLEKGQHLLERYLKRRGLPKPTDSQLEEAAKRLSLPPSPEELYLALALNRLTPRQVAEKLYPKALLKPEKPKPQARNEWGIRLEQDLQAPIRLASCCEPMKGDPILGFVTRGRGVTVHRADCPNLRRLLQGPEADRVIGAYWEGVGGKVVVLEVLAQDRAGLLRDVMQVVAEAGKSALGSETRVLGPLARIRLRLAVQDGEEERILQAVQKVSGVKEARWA

Row | Kd (RelTt^NTD) | ppGpp synthetase activity (RelTt) | SMILES
1 | ~50 µM | – | Nc1ncnc2c1ncn2[C@@H]1O[C@H](COP(=O)(O)CP(=O)(O)OP(=O)(O)O)[C@@H](O)[C@H]1O [APCPP]
2 | – | ppGpp synthetase activity of RelTt | Nc1nc2c(ncn2[C@@H]2O[C@H](COP(=O)(O)OP(=O)(O)O)[C@@H](OP(=O)(O)OP(=O)(O)O)[C@H]2O)c(=O)[nH]1 [ppGpp]
